Measurements reported in ChEMBL document CHEMBL3885881, “DrugMatrix”.

Organism: Rattus norvegicus
Experiment: DrugMatrix - Regimen: Daily Repeat
Assay type: toxicity, organism-based, Sprague-Dawley
Parameters: regimen Daily Repeat, gender Male, age 6-8 weeks
Conditions: in vivo, sc, route subcutaneous, […]; for SODIUM / TOTAL BILIRUBIN / TOTAL PROTEIN / URIC ACID / ALANINE AMINOTRANSFERASE / ALBUMIN / ALKALINE PHOSPHATASE / ASPARTATE AMINOTRANSFERASE / BLOOD UREA NITROGEN / CARBON DIOXIDE / CHLORIDE / CHOLESTEROL / CREATINE PHOSPHOKINASE / CREATININE / GLUCOSE / LACTATE DEHYDROGENASE / LIPASE / PHOSPHORUS / POTASSIUM: tissue Plasma; for ABSOLUTE BASOPHIL / ABSOLUTE EOSINOPHIL / ABSOLUTE LYMPHOCYTE / ABSOLUTE MONOCYTE / ABSOLUTE SEGMENTED NEUTROPHIL / BASOPHIL / EOSINOPHIL / ERYTHROCYTE COUNT / HEMATOCRIT / HEMOGLOBIN / LEUKOCYTE COUNT / LYMPHOCYTE / MEAN CORPUSCULAR HEMOGLOBIN / MEAN CORPUSCULAR HEMOGLOBIN CONCENTRATION / MEAN CORPUSCULAR VOLUME / MONOCYTE / NEUTROPHIL / NUCLEATED RED BLOOD CELLS / PLATELET COUNT: tissue Blood
[1] = 2 mg/kg, 120 h, dose level M2, time 5 day
[2] = 25 mg/kg, 72 h, dose level High, time 3 day
[3] = 25 mg/kg, 120 h, dose level High, time 5 day
[4] = 72 h, dose 0.25 mg/Kg, dose level M1, time 3 day
[5] = 120 h, dose 0.25 mg/Kg, dose level M1, time 5 day

C[C@]12CC[C@@H]3c4ccc(OC(=O)c5ccccc5)cc4CC[C@H]3[C@@H]1CC[C@@H]2O [ESTRADIOL BENZOATE]
SODIUM [1]: 141.87 MEQ/L | TOTAL BILIRUBIN [1]: 0.13 mg/dL | TOTAL PROTEIN [1]: 5.93 G/DL | URIC ACID [1]: 2.07 mg/dL | ABSOLUTE BASOPHIL [2]: 0 CELLS/uL | ABSOLUTE EOSINOPHIL [2]: 0 CELLS/uL | ABSOLUTE LYMPHOCYTE [2]: 7876 CELLS/uL | ABSOLUTE MONOCYTE [2]: 263 CELLS/uL | ABSOLUTE SEGMENTED NEUTROPHIL [2]: 1061 CELLS/uL | BASOPHIL [2]: 0% | EOSINOPHIL [2]: 0% | ERYTHROCYTE COUNT [2]: 5.97 x10E6/uL | HEMATOCRIT [2]: 37% | HEMOGLOBIN [2]: 13.8 G/DL | LEUKOCYTE COUNT [2]: 9.2 x10E3/uL | LYMPHOCYTE [2]: 86% | MEAN CORPUSCULAR HEMOGLOBIN [2]: 23.2 pg | MEAN CORPUSCULAR HEMOGLOBIN CONCENTRATION [2]: 37.33 G/DL | MEAN CORPUSCULAR VOLUME [2]: 62.1 fL | MONOCYTE [2]: 2.67% | NEUTROPHIL [2]: 11.33% | NUCLEATED RED BLOOD CELLS [2]: 0 /100WBC | PLATELET COUNT [2]: 1341 x10E3/uL | ALANINE AMINOTRANSFERASE [2]: 32.33 u/L | ALBUMIN [2]: 4.13 G/DL | ALKALINE PHOSPHATASE [2]: 479.33 u/L | ASPARTATE AMINOTRANSFERASE [2]: 66.67 u/L | BLOOD UREA NITROGEN [2]: 10.33 mg/dL | CARBON DIOXIDE [2]: 29 mmol/L | CHLORIDE [2]: 101.33 MEQ/L | CHOLESTEROL [2]: 26.67 mg/dL | CREATINE PHOSPHOKINASE [2]: 407.67 u/L | CREATININE [2]: 0.16 mg/dL | GLUCOSE [2]: 188.67 mg/dL | LACTATE DEHYDROGENASE [2]: 154.67 u/L | LIPASE [2]: 7.33 u/L | PHOSPHORUS [2]: 11.1 mg/dL | POTASSIUM [2]: 5.86 MEQ/L | SODIUM [2]: 141.4 MEQ/L | TOTAL BILIRUBIN [2]: 0.1 mg/dL | TOTAL PROTEIN [2]: 5.73 G/DL | URIC ACID [2]: 2 mg/dL | ABSOLUTE BASOPHIL [3]: 0 CELLS/uL | ABSOLUTE EOSINOPHIL [3]: 23.33 CELLS/uL | ABSOLUTE LYMPHOCYTE [3]: 7006.67 CELLS/uL | ABSOLUTE MONOCYTE [3]: 182 CELLS/uL | ABSOLUTE SEGMENTED NEUTROPHIL [3]: 921.33 CELLS/uL | BASOPHIL [3]: 0% | EOSINOPHIL [3]: 0.33% | ERYTHROCYTE COUNT [3]: 5.89 x10E6/uL | HEMATOCRIT [3]: 35% | HEMOGLOBIN [3]: 13.6 G/DL | LEUKOCYTE COUNT [3]: 8.13 x10E3/uL | LYMPHOCYTE [3]: 86.33% | MEAN CORPUSCULAR HEMOGLOBIN [3]: 23.13 pg | MEAN CORPUSCULAR HEMOGLOBIN CONCENTRATION [3]: 38.9 G/DL | MEAN CORPUSCULAR VOLUME [3]: 59.43 fL | MONOCYTE [3]: 2.67% | NEUTROPHIL [3]: 10.67% | NUCLEATED RED BLOOD CELLS [3]: 0 /100WBC | PLATELET COUNT [3]: 988.67 x10E3/uL | ALANINE AMINOTRANSFERASE [3]: 53 u/L | ALBUMIN [3]: 5.07 G/DL | ALKALINE PHOSPHATASE [3]: 360 u/L | ASPARTATE AMINOTRANSFERASE [3]: 106.33 u/L | BLOOD UREA NITROGEN [3]: 14 mg/dL | CARBON DIOXIDE [3]: 27.33 mmol/L | CHLORIDE [3]: 98.67 MEQ/L | CHOLESTEROL [3]: 32.67 mg/dL | CREATINE PHOSPHOKINASE [3]: 366.33 u/L | CREATININE [3]: 0.19 mg/dL | GLUCOSE [3]: 130.67 mg/dL | LACTATE DEHYDROGENASE [3]: 223.33 u/L | LIPASE [3]: 7.67 u/L | PHOSPHORUS [3]: 11.37 mg/dL | POTASSIUM [3]: 5.61 MEQ/L | SODIUM [3]: 143.3 MEQ/L | TOTAL BILIRUBIN [3]: 0.1 mg/dL | TOTAL PROTEIN [3]: 7.6 G/DL | URIC ACID [3]: 2.1 mg/dL | ABSOLUTE BASOPHIL [4]: 0 CELLS/uL | ABSOLUTE EOSINOPHIL [4]: 0 CELLS/uL | ABSOLUTE LYMPHOCYTE [4]: 8002.33 CELLS/uL | ABSOLUTE MONOCYTE [4]: 146.33 CELLS/uL | ABSOLUTE SEGMENTED NEUTROPHIL [4]: 218 CELLS/uL | BASOPHIL [4]: 0% | EOSINOPHIL [4]: 0% | ERYTHROCYTE COUNT [4]: 6.05 x10E6/uL | HEMATOCRIT [4]: 38.6% | HEMOGLOBIN [4]: 15.03 G/DL | LEUKOCYTE COUNT [4]: 8.37 x10E3/uL | LYMPHOCYTE [4]: 95.67% | MEAN CORPUSCULAR HEMOGLOBIN [4]: 24.83 pg | MEAN CORPUSCULAR HEMOGLOBIN CONCENTRATION [4]: 39.03 G/DL | MEAN CORPUSCULAR VOLUME [4]: 63.73 fL | MONOCYTE [4]: 1.67% | NEUTROPHIL [4]: 2.67% | NUCLEATED RED BLOOD CELLS [4]: 0 /100WBC | PLATELET COUNT [4]: 1109.67 x10E3/uL | ALANINE AMINOTRANSFERASE [4]: 61.67 u/L | ALBUMIN [4]: 4.2 G/DL | ALKALINE PHOSPHATASE [4]: 323.67 u/L | ASPARTATE AMINOTRANSFERASE [4]: 81.33 u/L | BLOOD UREA NITROGEN [4]: 11.33 mg/dL | CARBON DIOXIDE [4]: 26.33 mmol/L | CHOLESTEROL [4]: 75.67 mg/dL | CREATINE PHOSPHOKINASE [4]: 295 u/L | CREATININE [4]: 0.23 mg/dL | GLUCOSE [4]: 126 mg/dL | LACTATE DEHYDROGENASE [4]: 285.67 u/L | LIPASE [4]: 12.33 u/L | PHOSPHORUS [4]: 10.4 mg/dL | TOTAL BILIRUBIN [4]: 0.1 mg/dL | TOTAL PROTEIN [4]: 6.03 G/DL | URIC ACID [4]: 0.43 mg/dL | ABSOLUTE BASOPHIL [5]: 0 CELLS/uL | ABSOLUTE EOSINOPHIL [5]: 45.33 CELLS/uL | ABSOLUTE LYMPHOCYTE [5]: 12282.67 CELLS/uL | ABSOLUTE MONOCYTE [5]: 135 CELLS/uL | ABSOLUTE SEGMENTED NEUTROPHIL [5]: 937 CELLS/uL | BASOPHIL [5]: 0% | EOSINOPHIL [5]: 0.33% | ERYTHROCYTE COUNT [5]: 5.99 x10E6/uL | HEMATOCRIT [5]: 37.83% | HEMOGLOBIN [5]: 14.7 G/DL | LEUKOCYTE COUNT [5]: 13.4 x10E3/uL | LYMPHOCYTE [5]: 91.67% | MEAN CORPUSCULAR HEMOGLOBIN [5]: 24.53 pg | MEAN CORPUSCULAR HEMOGLOBIN CONCENTRATION [5]: 38.87 G/DL | MEAN CORPUSCULAR VOLUME [5]: 63.13 fL | MONOCYTE [5]: 1% | NEUTROPHIL [5]: 7% | NUCLEATED RED BLOOD CELLS [5]: 0 /100WBC | PLATELET COUNT [5]: 1305.33 x10E3/uL | ALANINE AMINOTRANSFERASE [5]: 47.67 u/L | ALBUMIN [5]: 4 G/DL | ALKALINE PHOSPHATASE [5]: 486.33 u/L | ASPARTATE AMINOTRANSFERASE [5]: 78.33 u/L | BLOOD UREA NITROGEN [5]: 15.33 mg/dL | CARBON DIOXIDE [5]: 22.67 mmol/L | CHLORIDE [5]: 104.33 MEQ/L | CHOLESTEROL [5]: 33 mg/dL | CREATINE PHOSPHOKINASE [5]: 654 u/L | CREATININE [5]: 0.27 mg/dL | GLUCOSE [5]: 190 mg/dL | LACTATE DEHYDROGENASE [5]: 308 u/L | LIPASE [5]: 9 u/L | PHOSPHORUS [5]: 12.63 mg/dL | POTASSIUM [5]: 4.9 MEQ/L | SODIUM [5]: 143.3 MEQ/L | TOTAL BILIRUBIN [5]: 0.1 mg/dL | TOTAL PROTEIN [5]: 5.73 G/DL | URIC ACID [5]: 1.6 mg/dL
